In brackets after ≈: the same amount, converted by molar mass.
How the values were obtained:
Type in all cases: functional
[1] = test system: Mycobacterium tuberculosis; assay: Antimycobacterial activity against streptomycin-resistant Mycobacterium tuberculosis 136570 assessed as growth inhibition after 2 to 3 weeks by turbidometry
[2] = test system: Mycobacterium tuberculosis; assay: Antimycobacterial activity against isoniazid-resistant Mycobacterium tuberculosis 912253 assessed as growth inhibition after 2 to 3 weeks by turbidometry
[3] = test system: Mycobacterium tuberculosis; assay: Antimycobacterial activity against rifampin-resistant Mycobacterium tuberculosis 19000 assessed as growth inhibition after 2 to 3 weeks by turbidometry
[4] = test system: Mycobacterium tuberculosis; assay: Antimycobacterial activity against ethambutol-resistant Mycobacterium tuberculosis 17003 assessed as growth inhibition after 2 to 3 weeks by turbidometry
[5] = test system: Mycobacterium tuberculosis; assay: Antimycobacterial activity against ofloxacin-resistant Mycobacterium tuberculosis 12119 assessed as growth inhibition after 2 to 3 weeks by turbidometry
[6] = test system: Mycobacterium tuberculosis; assay: Antimycobacterial activity against Mycobacterium tuberculosis overexpressing DprE1 assessed as growth inhibition by resazurin assay
[7] = test system: Mycobacterium tuberculosis; assay: Antimycobacterial activity against BTZ043-resistant Mycobacterium tuberculosis harboring DprE1 C-G mutant assessed as growth inhibition by resazurin assay
[8] = test system: Mycobacterium tuberculosis; assay: Antimycobacterial activity against BTZ043-resistant Mycobacterium tuberculosis harboring DprE1 C-S mutant assessed as growth inhibition by resazurin assay
[9] = test system: Mycobacterium tuberculosis; assay: Antimycobacterial activity against 3-cyclopropyl-1-phenyl-5-((3-(trifluoromethyl)benzylamino)-methyl)-1H-pyrazolo[3,4-b]pyridin-6(7H)-one-resistant Mycobacterium tuberculosis clone 8.1 assessed as growth inhibition by resazurin assay; details: clone 8.1, 7 h
[10] = test system: Mycobacterium tuberculosis; assay: Antimycobacterial activity against 3-cyclopropyl-1-phenyl-5-((3-(trifluoromethyl)benzylamino)-methyl)-1H-pyrazolo[3,4-b]pyridin-6(7H)-one-resistant Mycobacterium tuberculosis clone 8.2 assessed as growth inhibition by resazurin assay; details: clone 8.2, 7 h
[11] = test system: Mycobacterium tuberculosis; assay: Antimycobacterial activity against 3-cyclopropyl-1-phenyl-5-((3-(trifluoromethyl)benzylamino)-methyl)-1H-pyrazolo[3,4-b]pyridin-6(7H)-one-resistant Mycobacterium tuberculosis clone 8.3 assessed as growth inhibition by resazurin assay; details: clone 8.3, 7 h

Structure (SMILES)	MIC [1]	MIC [2]	MIC [3]	MIC [4]	MIC [5]	MIC [6]	MIC [7]	MIC [8]	MIC [9]	MIC [10]	MIC [11]
Cc1nn(-c2ccccc2)c2[nH]c(=O)c(CNCc3cccc(C(F)(F)F)c3)cc12	3.1 µM (≈ 1.28 µg/mL)	6.2 µM (≈ 2.56 µg/mL)	3.1 µM (≈ 1.28 µg/mL)	3.1 µM (≈ 1.28 µg/mL)	1.6 µM (≈ 0.66 µg/mL)	2.5 µM (≈ 1.03 µg/mL)	0.3 µM (≈ 0.124 µg/mL)	100 µM (≈ 41.2 µg/mL)	> 100 µM	100 µM (≈ 41.2 µg/mL)	0.2 µM (≈ 0.0825 µg/mL)
O=c1[nH]c2c(cc1CNCc1cccc(C(F)(F)F)c1)c(C1CC1)nn2-c1ccccc1	1.6 µM (≈ 0.702 µg/mL)	3.1 µM (≈ 1.36 µg/mL)	1.6 µM (≈ 0.702 µg/mL)	1.6 µM (≈ 0.702 µg/mL)	1.6 µM (≈ 0.702 µg/mL)	0.6 µM (≈ 0.263 µg/mL)	50 µM (≈ 21.9 µg/mL)	>100 µM	50 µM (≈ 21.9 µg/mL)	0.1 µM (≈ 0.0438 µg/mL)	0.2 µM (≈ 0.0877 µg/mL)
O=c1[nH]c2c(cc1CNCc1cccc(C(F)(F)F)n1)c(C1CC1)nn2-c1ccccc1						50 µM (≈ 22 µg/mL)	100 µM (≈ 43.9 µg/mL)	100 µM (≈ 43.9 µg/mL)	1.2 µM (≈ 0.527 µg/mL)	> 100 µM	0.2 µM (≈ 0.0879 µg/mL)
O=c1[nH]c2c(cc1CNCc1cc(C(F)(F)F)ccc1F)c(C1CC1)nn2-c1ccccc1						100 µM (≈ 45.6 µg/mL)	25 µM (≈ 11.4 µg/mL)	1.2 µM (≈ 0.548 µg/mL)	100 µM (≈ 45.6 µg/mL)	0.08 µM (≈ 0.0365 µg/mL)	0.2 µM (≈ 0.0913 µg/mL)
O=c1[nH]c2c(cc1CNCc1cccc(C(F)(F)F)c1F)c(C1CC1)nn2-c1ccccc1						25 µM (≈ 11.4 µg/mL)	1.2 µM (≈ 0.548 µg/mL)	>100 µM	0.6 µM (≈ 0.274 µg/mL)	0.04 µM (≈ 0.0183 µg/mL)	0.2 µM (≈ 0.0913 µg/mL)
Cc1ccc(C(F)(F)F)cc1CNCc1cc2c(C3CC3)nn(-c3ccccc3)c2[nH]c1=O						1.2 µM (≈ 0.543 µg/mL)	>100 µM	0.3 µM (≈ 0.136 µg/mL)	0.3 µM (≈ 0.136 µg/mL)	> 100 µM	0.2 µM (≈ 0.0905 µg/mL)
C[C@H]1COC2(CCN(c3nc(=O)c4cc(C(F)(F)F)cc([N+](=O)[O-])c4s3)CC2)O1 [BTZ-043]						> 100 µM	0.6 µM (≈ 0.259 µg/mL)	0.3 µM (≈ 0.129 µg/mL)	> 100 µM	100 µM (≈ 43.1 µg/mL)	12.5 µM (≈ 5.39 µg/mL)
CC[C@@H](CO)NCCN[C@@H](CC)CO [ETHAMBUTOL]	2 µM (≈ 0.409 µg/mL)	2 µM (≈ 0.409 µg/mL)	2 µM (≈ 0.409 µg/mL)	> 20 µM	2 µM (≈ 0.409 µg/mL)						
NNC(=O)c1ccncc1 [ISONIAZID]	0.2 µM (≈ 0.0274 µg/mL)	> 29 µM	0.2 µM (≈ 0.0274 µg/mL)	0.2 µM (≈ 0.0274 µg/mL)	0.2 µM (≈ 0.0274 µg/mL)	100 µM (≈ 13.7 µg/mL)	0.3 µM (≈ 0.0411 µg/mL)	0.1 µM (≈ 0.0137 µg/mL)	100 µM (≈ 13.7 µg/mL)	> 100 µM	0.2 µM (≈ 0.0274 µg/mL)
CC1COc2c(N3CCN(C)CC3)c(F)cc3c(=O)c(C(=O)O)cn1c23 (stereo not drawn) [OFLOXACIN]	0.7 µM (≈ 0.253 µg/mL)	0.7 µM (≈ 0.253 µg/mL)	0.7 µM (≈ 0.253 µg/mL)	0.7 µM (≈ 0.253 µg/mL)	> 5 µM						
CO[C@H]1/C=C/O[C@@]2(C)Oc3c(C)c(O)c4c(O)c(c(/C=N/N5CCN(C)CC5)c(O)c4c3C2=O)NC(=O)/C(C)=C\C=C\[C@H](C)[C@H](O)[C@@H](C)[C@@H](O)[C@@H](C)[C@H](OC(C)=O)[C@@H]1C [RIFAMPIN]	0.02 µM (≈ 0.0165 µg/mL)	0.02 µM (≈ 0.0165 µg/mL)	> 5 µM	0.02 µM (≈ 0.0165 µg/mL)	0.02 µM (≈ 0.0165 µg/mL)						
CN[C@@H]1[C@H](O[C@H]2[C@H](O[C@H]3[C@H](O)[C@@H](O)[C@H](N=C(N)N)[C@@H](O)[C@@H]3N=C(N)N)O[C@@H](C)[C@]2(O)C=O)O[C@@H](CO)[C@H](O)[C@H]1O [STREPTOMYCIN]	> 5 µM	0.3 µM (≈ 0.174 µg/mL)	0.3 µM (≈ 0.174 µg/mL)	0.3 µM (≈ 0.174 µg/mL)	0.3 µM (≈ 0.174 µg/mL)						

— ChEMBL document CHEMBL3259779, “Discovery of pyrazolopyridones as a novel class of noncovalent DprE1 inhibitor with potent anti-mycobacterial activity” (J Med Chem, 2014)
